Data taken from BindingDB's records for doi:10.1016/j.bmcl.2013.03.030 (Panthera Biopharma, 2013).

Target: Botulinum neurotoxin type A (Clostridium botulinum, UniProt P0DPI0)
Assay: Inhibition of Clostridium botulinum BoNT/A light chain (1 to 429 amino acid) using Abz-Thr-dArg-Ile-Asp-Glu-Ala-Asn-Gln-Arg-Ala-Thr-Lys-Nle-Lys(Dnp)-NH2 as substrate after 10 mins by FRET assay

Chain of Botulinum neurotoxin type A (P0DPI0 2-448 limits assumed): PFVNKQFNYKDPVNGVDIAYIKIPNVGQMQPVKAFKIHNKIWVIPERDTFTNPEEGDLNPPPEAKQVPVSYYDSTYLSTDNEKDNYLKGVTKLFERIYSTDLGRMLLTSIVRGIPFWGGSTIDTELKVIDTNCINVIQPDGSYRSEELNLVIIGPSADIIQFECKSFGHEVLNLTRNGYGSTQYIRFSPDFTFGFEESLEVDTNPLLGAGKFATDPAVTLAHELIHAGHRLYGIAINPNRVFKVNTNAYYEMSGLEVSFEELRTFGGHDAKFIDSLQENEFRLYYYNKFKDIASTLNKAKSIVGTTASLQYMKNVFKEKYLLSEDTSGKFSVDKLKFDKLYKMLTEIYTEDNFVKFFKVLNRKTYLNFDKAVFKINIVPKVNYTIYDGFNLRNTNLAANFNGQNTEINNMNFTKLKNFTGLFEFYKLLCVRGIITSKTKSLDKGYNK

SMILES: O=C(Cc1sc(N2CCCC2)nc1O)NO
- Ki: > 300 µM
